According to publication PMC12362244, “Fidelity, specialization, and evolution of Paramecium PolX DNA polymerases involved in programmed double-strand break DNA repair” (Nucleic Acids Research, 2025):

Tests used:
HsPolλ = target: T1, HsPolλ (Homo sapiens, UniProt Q9UGP5); assay: gap-filling, FAM-primer urea-PAGE; format: biochemical; conditions: continuous template strand; 50 nM enzyme, 1 mM dGTP, 5 mM MgCl2, pH 7.5, 37°C
T1 construct: gene POLL; wild type; cleavable N-terminal 14-His tag; E. coli
T1 sequence (Q9UGP5 1-575): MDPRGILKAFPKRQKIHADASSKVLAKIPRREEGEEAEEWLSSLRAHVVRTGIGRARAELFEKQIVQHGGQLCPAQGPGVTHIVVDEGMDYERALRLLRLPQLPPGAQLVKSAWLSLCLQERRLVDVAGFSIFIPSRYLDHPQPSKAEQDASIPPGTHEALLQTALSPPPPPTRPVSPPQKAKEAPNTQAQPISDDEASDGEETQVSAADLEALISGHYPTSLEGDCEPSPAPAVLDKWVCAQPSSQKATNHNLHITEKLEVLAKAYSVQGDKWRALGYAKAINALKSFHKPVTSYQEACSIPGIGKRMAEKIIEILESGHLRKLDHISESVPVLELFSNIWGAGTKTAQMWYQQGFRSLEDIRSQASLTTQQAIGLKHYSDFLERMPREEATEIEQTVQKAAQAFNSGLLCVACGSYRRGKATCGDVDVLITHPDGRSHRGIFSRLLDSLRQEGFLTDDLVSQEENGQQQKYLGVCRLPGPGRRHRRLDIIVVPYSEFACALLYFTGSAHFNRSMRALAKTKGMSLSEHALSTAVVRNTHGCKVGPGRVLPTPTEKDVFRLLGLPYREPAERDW

PolXcΔNter = target: T2, PolXcΔNter (Paramecium tetraurelia, UniProt A0DCU7); assay: gap-filling, FAM-primer urea-PAGE; format: biochemical; conditions: gap with nick in template strand; 1 nM enzyme, 1 mM dGTP, 5 mM MgCl2, pH 7.5, 27°C
T2 construct: gene GSPATT00015723001; lacks residues 1-266 (BRCT and linker); cleavable N-terminal 14-His tag; E. coli BL21 Star (DE3)
T2 sequence (A0DCU7 267-608): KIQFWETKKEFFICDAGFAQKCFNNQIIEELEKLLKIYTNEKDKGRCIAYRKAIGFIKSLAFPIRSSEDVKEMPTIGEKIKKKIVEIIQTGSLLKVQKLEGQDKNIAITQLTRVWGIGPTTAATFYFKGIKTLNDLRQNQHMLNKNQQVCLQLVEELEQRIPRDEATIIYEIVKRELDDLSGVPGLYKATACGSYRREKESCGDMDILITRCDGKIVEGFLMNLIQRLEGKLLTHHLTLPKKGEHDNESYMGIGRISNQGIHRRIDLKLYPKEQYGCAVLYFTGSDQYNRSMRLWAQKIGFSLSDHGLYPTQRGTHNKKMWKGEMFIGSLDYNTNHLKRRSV

Nc1nc2c(ncn2[C@H]2C[C@H](O)[C@@H](COP(=O)(O)OP(=O)(O)OP(=O)(O)O)O2)c(=O)[nH]1 [dGTP] was tested, and the “gap-filling, FAM-primer urea-PAGE” value (HsPolλ) was “display gap-filling activity similar to hPolλ when using a continuous template strand” and the “gap-filling, FAM-primer urea-PAGE” value (PolXcΔNter) was “PolXaΔNter, PolXbΔNter, and PolXcΔNter displayed the highest apparent activity”.
